Test system: library of 8,380 IKZF3 degrons (ZF-eGFP/mCherry reporter) in Jurkat cells
Assay: Pooled library screen (FACS, NGS, limma voom LogFC of positive vs negative read counts)
Assay type: cell-based, human
Summary of the method: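 Degron enrichment was scored by amplicon NGS of gDNA from GFP-low versus other mCherry+ cells, at >600× coverage across three independent transductions. Sorting followed 18 h exposure at 37 °C to thalidomide analog or DMSO, which set the gate; dead cells were excluded with DAPI. Single-copy integration used MOI <0.3.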

Structure (SMILES): CN1CCN(c2ccc3c(c2)C(=O)N(C2CCC(=O)NC2=O)C3=O)CC1 (centres unmarked) [B08, 2-(2,6-dioxopiperidin-3-yl)-5-(4-methylpiperazin-1-yl)isoindoline-1,3-dione]
- B08_logFC (Degron-ID 115, SEQ ID NO 2354, 46F_47A_49E_50V_52G_53A_54S_55F_67L): 2.665
- B08_logFC (Degron-ID 312, SEQ ID NO 2356, 46F_47C_49E_50I_52G_53A_54P_55F_67L): 2.662
- B08_logFC (Degron-ID 313, SEQ ID NO 2359, 46F_47C_49E_50I_52G_53A_54Q_55F_67L): 2.659
- B08_logFC (Degron-ID 316, SEQ ID NO 2364, 46F_47C_49E_50I_52G_53A_54T_55F_67L): 2.641
- B08_logFC (Degron-ID 355, SEQ ID NO 2334, 46F_47C_49E_50V_52G_53A_54S_55F_67L): 2.718
- B08_logFC (Degron-ID 432, SEQ ID NO 2346, 46F_47C_49P_50I_52G_53A_54P_55F_67L): 2.683
- B08_logFC (Degron-ID 480, SEQ ID NO 2273, 46F_47D_49D_50I_52G_53A_54A_55F_67L): 2.887
- B08_logFC (Degron-ID 495, SEQ ID NO 2327, 46F_47D_49D_50I_52G_53A_54S_55F_67L): 2.748
- B08_logFC (Degron-ID 556, SEQ ID NO 2290, 46F_47D_49E_50I_52G_53A_54T_55F_67L): 2.821
- B08_logFC (Degron-ID 557, SEQ ID NO 2336, 46F_47D_49E_50I_52G_53A_54V_55F_67L): 2.714
- B08_logFC (Degron-ID 591, SEQ ID NO 2348, 46F_47D_49E_50V_52G_53A_54N_55F_67L): 2.678
- B08_logFC (Degron-ID 593, SEQ ID NO 2355, 46F_47D_49E_50V_52G_53A_54Q_55F_67L): 2.664
- B08_logFC (Degron-ID 600, SEQ ID NO 2284, 46F_47D_49N_50I_52G_53A_54A_55F_67L): 2.845
- B08_logFC (Degron-ID 825, SEQ ID NO 2282, 46F_47E_49E_50V_52G_53A_54G_55F_67L): 2.853
- B08_logFC (Degron-ID 852, SEQ ID NO 2326, 46F_47E_49N_50I_52G_53A_54P_55F_67L): 2.749
- B08_logFC (Degron-ID 966, SEQ ID NO 2283, 46F_47F_49D_50I_52G_53A_54H_55F_67L): 2.85
- B08_logFC (Degron-ID 1014, SEQ ID NO 2319, 46F_47F_49D_50V_52G_53A_54R_55F_67L): 2.759
- B08_logFC (Degron-ID 1079, SEQ ID NO 2329, 46F_47F_49E_50V_52G_53A_54Y_55F_67L): 2.743
- B08_logFC (Degron-ID 1091, SEQ ID NO 2265, 46F_47F_49N_50I_52G_53A_54N_55F_67L): 2.903
- B08_logFC (Degron-ID 1095, SEQ ID NO 2275, 46F_47F_49N_50I_52G_53A_54S_55F_67L): 2.882
- B08_logFC (Degron-ID 1096, SEQ ID NO 2340, 46F_47F_49N_50I_52G_53A_54T_55F_67L): 2.704
- B08_logFC (Degron-ID 1146, SEQ ID NO 2305, 46F_47F_49P_50I_52G_53A_54H_55F_67L): 2.792
- B08_logFC (Degron-ID 1147, SEQ ID NO 2343, 46F_47F_49P_50I_52G_53A_54I_55F_67L): 2.701
- B08_logFC (Degron-ID 1149, SEQ ID NO 2361, 46F_47F_49P_50I_52G_53A_54L_55F_67L): 2.65
- B08_logFC (Degron-ID 1154, SEQ ID NO 2333, 46F_47F_49P_50I_52G_53A_54R_55F_67L): 2.724
- B08_logFC (Degron-ID 1159, SEQ ID NO 2293, 46F_47F_49P_50I_52G_53A_54Y_55F_67L): 2.817
- B08_logFC (Degron-ID 1186, SEQ ID NO 2321, 46F_47F_49P_50V_52G_53A_54H_55F_67L): 2.754
- B08_logFC (Degron-ID 1192, SEQ ID NO 2303, 46F_47F_49P_50V_52G_53A_54P_55F_67L): 2.797
- B08_logFC (Degron-ID 1440, SEQ ID NO 2337, 46F_47H_49D_50I_52G_53A_54A_55F_67L): 2.712
- B08_logFC (Degron-ID 1541, SEQ ID NO 2267, 46F_47H_49E_50V_52G_53A_54C_55F_67L): 2.901
- B08_logFC (Degron-ID 1552, SEQ ID NO 2268, 46F_47H_49E_50V_52G_53A_54P_55F_67L): 2.901
- B08_logFC (Degron-ID 1572, SEQ ID NO 2307, 46F_47H_49N_50I_52G_53A_54P_55F_67L): 2.781
- B08_logFC (Degron-ID 1575, SEQ ID NO 2324, 46F_47H_49N_50I_52G_53A_54S_55F_67L): 2.75
- B08_logFC (Degron-ID 1635, SEQ ID NO 2315, 46F_47H_49P_50I_52G_53A_54S_55F_67L): 2.766
- B08_logFC (Degron-ID 1660, SEQ ID NO 2328, 46F_47H_49P_50V_52G_53A_54A_55F_67L): 2.746
- B08_logFC (Degron-ID 1673, SEQ ID NO 2281, 46F_47H_49P_50V_52G_53A_54Q_55F_67L): 2.855
- B08_logFC (Degron-ID 1812, SEQ ID NO 2277, 46F_47I_49N_50I_52G_53A_54P_55F_67L): 2.872
- B08_logFC (Degron-ID 2412, SEQ ID NO 2342, 46F_47M_49D_50I_52G_53A_54P_55F_67L): 2.702
- B08_logFC (Degron-ID 2832, SEQ ID NO 2294, 46F_47N_49P_50I_52G_53A_54P_55F_67L): 2.815
- B08_logFC (Degron-ID 2940, SEQ ID NO 2314, 46F_47Q_49E_50I_52G_53A_54A_55F_67L): 2.768
- B08_logFC (Degron-ID 2955, SEQ ID NO 2358, 46F_47Q_49E_50I_52G_53A_54S_55F_67L): 2.66
- B08_logFC (Degron-ID 2957, SEQ ID NO 2350, 46F_47Q_49E_50I_52G_53A_54V_55F_67L): 2.675
- B08_logFC (Degron-ID 2987, SEQ ID NO 2341, 46F_47Q_49E_50V_52G_53A_54I_55F_67L): 2.703
- B08_logFC (Degron-ID 3012, SEQ ID NO 2271, 46F_47Q_49N_50I_52G_53A_54P_55F_67L): 2.893
- B08_logFC (Degron-ID 3100, SEQ ID NO 2338, 46F_47Q_49P_50V_52G_53A_54A_55F_67L): 2.707
- B08_logFC (Degron-ID 3172, SEQ ID NO 2291, 46F_47R_49D_50V_52G_53A_54P_55F_67L): 2.82
- B08_logFC (Degron-ID 3252, SEQ ID NO 2349, 46F_47R_49N_50I_52G_53A_54P_55F_67L): 2.676
- B08_logFC (Degron-ID 3360, SEQ ID NO 2289, 46F_47S_49D_50I_52G_53A_54A_55F_67L): 2.823
- B08_logFC (Degron-ID 3421, SEQ ID NO 2287, 46F_47S_49E_50I_52G_53A_54C_55F_67L): 2.828
- B08_logFC (Degron-ID 3433, SEQ ID NO 2323, 46F_47S_49E_50I_52G_53A_54Q_55F_67L): 2.75
